Tests used:
giant foxtail = assay: Test B pre/postemergence giant foxtail; assay type: in vivo, Setaria faberii
In short: (§1)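 Herbicidal effect was estimated by eye on a ten-point control scale after plants spent twelve to sixteen days in a greenhouse following soil or foliar treatment. Foliar sprays targeted plants at one to four leaves; all doses were formulated in a non-phytotoxic solvent with surfactant.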

morningglory = assay: Test B pre/postemergence morningglory; assay type: in vivo, Ipomoea hederacea
In short: as §1

crabgrass = assay: Test B pre/postemergence crabgrass; assay type: in vivo, Digitaria sanguinalis
In short: as §1

pigweed = assay: Test B pre/postemergence pigweed; assay type: in vivo, Amaranthus retroflexus
In short: as §1

rice = assay: Test B flood test rice; assay type: in vivo, Oryza sativa
In short: (§2)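 Each value is a visual injury score relative to controls, with 10 meaning complete control and 0 no effect. Evaluation took place twelve to sixteen days after the 2-leaf-stage plants were treated and kept in the greenhouse.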

sugar beet = assay: Test B pre/postemergence sugar beet; assay type: in vivo, Beta vulgaris
In short: as §1

smallflower flatsedge = assay: Test B flood test smallflower flatsedge; assay type: in vivo, Cyperus difformis
In short: as §2

rape = assay: Test B pre/postemergence rape; assay type: in vivo, Brassica napus
In short: as §1

duck salad = assay: Test B flood test duck salad; assay type: in vivo, Heteranthera limosa
In short: as §2

purple nutsedge = assay: Test B pre/postemergence purple nutsedge; assay type: in vivo, Cyperus rotundus
In short: as §1

corn = assay: Test B pre/postemergence corn; assay type: in vivo, Zea mays
In short: as §1

wild oat = assay: Test B pre/postemergence wild oat; assay type: in vivo, Avena fatua
In short: as §1

bamyardgrass = assay: Test B flood test barnyardgrass; assay type: in vivo, Echinochloa crus-galli
In short: as §2

wheat = assay: Test B pre/postemergence wheat; assay type: in vivo, Triticum aestivum
In short: as §1

surinam grass = assay: Test B pre/postemergence surinam grass; assay type: in vivo, Brachiaria decumbens
In short: as §1

cocklebur = assay: Test B pre/postemergence cocklebur; assay type: in vivo, Xanthium strumarium
In short: as §1

[1] = Preemergence, Rate 62 g/ha, scale of 0 to 10 where 0 is no effect and 10 is complete control
[2] = Preemergence, Rate 250 g/ha, scale of 0 to 10 where 0 is no effect and 10 is complete control
[3] = Preemergence, Rate 500 g/ha, scale of 0 to 10 where 0 is no effect and 10 is complete control
[4] = Rate 62 g/ha, Postemergence, scale of 0 to 10 where 0 is no effect and 10 is complete control
[5] = Rate 125 g/ha, Postemergence, scale 0 to 10
[6] = Rate 125 g/ha, Preemergence, scale of 0 to 10 where 0 is no effect and 10 is complete control
[7] = Rate 500 g/ha, Postemergence, scale 0 to 10
[8] = Rate 62 g/ha, headed Pre-emergence (flood test species), scale 0 to 10 (0 no effect, 10 complete control)
[9] = Rate 125 g/ha, Pre-emergence, flood test species, scale 0 to 10 where 0 is no effect and 10 is complete control
[10] = Rate 250 g/ha, Pre-emergence, flood-test species, scale 0 to 10, 0 is no effect, 10 is complete control
[11] = Rate 500 g/ha, Pre-emergence, flood test species, scale 0 to 10 (0 no effect, 10 complete control)

Q: How did the “Giant foxtail plant response rating” value (giant foxtail; [1]) turn out when `COC(=O)Cn1c(=O)on(C(=O)N(c2ccc(F)cc2)C(C)C)c1=O` [Compound 215] was run?
A: 3

Q: And the “Giant foxtail plant response rating” value (giant foxtail; [2])?
A: 3

Q: And the “Plant response rating, Giant foxtail” value (giant foxtail; [3])?
A: 5

Q: And the “Giant foxtail plant response rating” value (giant foxtail; [4])?
A: 0

Q: What about the “Giant foxtail plant response rating” value (giant foxtail; [5]) of the same compound?
A: 0

Q: And the “Giant foxtail plant response rating” value (giant foxtail; [6])?
A: 3

Q: And the “Plant response rating (0 to 10; 0 is no effect, 10 is complete control), Giant foxtail” value (giant foxtail; Rate 250 g/ha, Postemergence)?
A: 3

Q: And the “Giant foxtail plant response rating” value (giant foxtail; [7])?
A: 5

Q: And the “Morningglory plant response rating” value (morningglory; [1])?
A: 0

Q: And the “Morningglory plant response rating” value (morningglory; [2])?
A: 0

Q: And the “Plant response rating, Morningglory” value (morningglory; [3])?
A: 0

Q: What about the “Morningglory plant response rating” value (morningglory; [4]) of the same compound?
A: 0

Q: What about the “Morningglory plant response rating” value (morningglory; [5]) of the same compound?
A: 2

Q: And the “Morningglory plant response rating” value (morningglory; [6])?
A: 0

Q: What about the “Plant response rating (0 to 10; 0 is no effect, 10 is complete control), Morningglory” value (morningglory; Rate 250 g/ha, Postemergence) of the same compound?
A: 3

Q: And the “Morningglory plant response rating” value (morningglory; [7])?
A: 3

Q: What about the “Crabgrass plant response rating” value (crabgrass; [1]) of the same compound?
A: 3

Q: What about the “Crabgrass plant response rating” value (crabgrass; [2]) of the same compound?
A: 4

Q: And the “Plant response rating, Crabgrass” value (crabgrass; [3])?
A: 4

Q: And the “Crabgrass plant response rating” value (crabgrass; [4])?
A: 0

Q: What about the “Crabgrass plant response rating” value (crabgrass; [5]) of the same compound?
A: 0

Q: And the “Crabgrass plant response rating” value (crabgrass; [6])?
A: 4

Q: What about the “Plant response rating (0 to 10; 0 is no effect, 10 is complete control), Crabgrass” value (crabgrass; Rate 250 g/ha, Postemergence) of the same compound?
A: 2

Q: What about the “Crabgrass plant response rating” value (crabgrass; [7]) of the same compound?
A: 2

Q: And the “Redroot pigweed plant response rating” value (pigweed; [1])?
A: 4

Q: What about the “Redroot pigweed plant response rating” value (pigweed; [2]) of the same compound?
A: 5

Q: What about the “Plant response rating, Redroot pigweed” value (pigweed; [3]) of the same compound?
A: 6

Q: And the “Redroot pigweed plant response rating” value (pigweed; [4])?
A: 0

Q: What about the “Redroot pigweed plant response rating” value (pigweed; [5]) of the same compound?
A: 0

Q: And the “Redroot pigweed plant response rating” value (pigweed; [6])?
A: 4

Q: What about the “Plant response rating (0 to 10; 0 is no effect, 10 is complete control), Redroot pigweed” value (pigweed; Rate 250 g/ha, Postemergence) of the same compound?
A: 6

Q: What about the “Redroot pigweed plant response rating” value (pigweed; [7]) of the same compound?
A: 6

Q: What about the “Rice plant response rating” value (rice; [8]) of the same compound?
A: 0

Q: And the “Rice plant response rating” value (rice; [9])?
A: 0

Q: And the “Rice plant response rating” value (rice; [10])?
A: 0

Q: And the “Rice plant response rating” value (rice; [11])?
A: 0

Q: What about the “Sugarbeets plant response rating” value (sugar beet; [1]) of the same compound?
A: 0

Q: What about the “Sugarbeets plant response rating” value (sugar beet; [2]) of the same compound?
A: 2

Q: And the “Plant response rating, Sugarbeets” value (sugar beet; [3])?
A: 7

Q: What about the “Sugarbeets plant response rating” value (sugar beet; [4]) of the same compound?
A: 0

Q: And the “Sugarbeets plant response rating” value (sugar beet; [5])?
A: 0

Q: What about the “Sugarbeets plant response rating” value (sugar beet; [6]) of the same compound?
A: 2

Q: What about the “Plant response rating (0 to 10; 0 is no effect, 10 is complete control), Sugarbeets” value (sugar beet; Rate 250 g/ha, Postemergence) of the same compound?
A: 0

Q: What about the “Sugarbeets plant response rating” value (sugar beet; [7]) of the same compound?
A: 0

Q: And the “S. Flatsedge plant response rating” value (smallflower flatsedge; [8])?
A: 0

Q: And the “S. Flatsedge plant response rating” value (smallflower flatsedge; [9])?
A: 0

Q: And the “S. Flatsedge plant response rating” value (smallflower flatsedge; [10])?
A: 0

Q: And the “S. Flatsedge plant response rating” value (smallflower flatsedge; [11])?
A: 0

Q: What about the “Rape plant response rating” value (rape; [1]) of the same compound?
A: 0

Q: And the “Rape plant response rating” value (rape; [2])?
A: 0

Q: And the “Plant response rating, Rape” value (rape; [3])?
A: 2

Q: And the “Rape plant response rating” value (rape; [4])?
A: 0

Q: What about the “Rape plant response rating” value (rape; [5]) of the same compound?
A: 0

Q: What about the “Rape plant response rating” value (rape; [6]) of the same compound?
A: 0

Q: And the “Plant response rating (0 to 10; 0 is no effect, 10 is complete control), Rape” value (rape; Rate 250 g/ha, Postemergence)?
A: 0

Q: What about the “Rape plant response rating” value (rape; [7]) of the same compound?
A: 0

Q: What about the “Ducksalad plant response rating” value (duck salad; [8]) of the same compound?
A: 0

Q: And the “Ducksalad plant response rating” value (duck salad; [9])?
A: 0

Q: What about the “Ducksalad plant response rating” value (duck salad; [10]) of the same compound?
A: 0

Q: What about the “Ducksalad plant response rating” value (duck salad; [11]) of the same compound?
A: 0

Q: And the “Nutsedge plant response rating” value (purple nutsedge; [1])?
A: 0

Q: And the “Nutsedge plant response rating” value (purple nutsedge; [2])?
A: 0

Q: What about the “Plant response rating, Nutsedge” value (purple nutsedge; [3]) of the same compound?
A: 0

Q: What about the “Nutsedge plant response rating” value (purple nutsedge; [4]) of the same compound?
A: 0

Q: And the “Nutsedge plant response rating” value (purple nutsedge; [5])?
A: 0

Q: What about the “Nutsedge plant response rating” value (purple nutsedge; [6]) of the same compound?
A: 0

Q: What about the “Plant response rating (0 to 10; 0 is no effect, 10 is complete control), Nutsedge” value (purple nutsedge; Rate 250 g/ha, Postemergence) of the same compound?
A: 0

Q: And the “Nutsedge plant response rating” value (purple nutsedge; [7])?
A: 0

Q: What about the “Corn plant response rating” value (corn; [1]) of the same compound?
A: 0

Q: What about the “Corn plant response rating” value (corn; [2]) of the same compound?
A: 0

Q: What about the “Plant response rating, Corn” value (corn; [3]) of the same compound?
A: 2

Q: And the “Corn plant response rating” value (corn; [4])?
A: 0

Q: And the “Corn plant response rating” value (corn; [5])?
A: 0

Q: And the “Corn plant response rating” value (corn; [6])?
A: 0

Q: What about the “Plant response rating (0 to 10; 0 is no effect, 10 is complete control), Corn” value (corn; Rate 250 g/ha, Postemergence) of the same compound?
A: 0

Q: What about the “Corn plant response rating” value (corn; [7]) of the same compound?
A: 0

Q: What about the “Wild oats plant response rating” value (wild oat; [1]) of the same compound?
A: 0

Q: And the “Wild oats plant response rating” value (wild oat; [2])?
A: 2

Q: And the “Plant response rating, Wild oats” value (wild oat; [3])?
A: 2

Q: What about the “Wild oats plant response rating” value (wild oat; [4]) of the same compound?
A: 0

Q: What about the “Wild oats plant response rating” value (wild oat; [5]) of the same compound?
A: 0

Q: What about the “Wild oats plant response rating” value (wild oat; [6]) of the same compound?
A: 0

Q: What about the “Plant response rating (0 to 10; 0 is no effect, 10 is complete control), Wild oats” value (wild oat; Rate 250 g/ha, Postemergence) of the same compound?
A: 2

Q: What about the “Barnyardgrass plant response rating” value (bamyardgrass; [8]) of the same compound?
A: 0

Q: What about the “Barnyardgrass plant response rating” value (bamyardgrass; [9]) of the same compound?
A: 0

Q: And the “Barnyardgrass plant response rating” value (bamyardgrass; [10])?
A: 0

Q: And the “Barnyardgrass plant response rating” value (bamyardgrass; [11])?
A: 0

Q: What about the “Wheat plant response rating” value (wheat; [1]) of the same compound?
A: 0

Q: And the “Wheat plant response rating” value (wheat; [2])?
A: 0

Q: And the “Plant response rating, Wheat” value (wheat; [3])?
A: 0

Q: What about the “Wheat plant response rating” value (wheat; [4]) of the same compound?
A: 3

Q: What about the “Wheat plant response rating” value (wheat; [5]) of the same compound?
A: 3

Q: What about the “Wheat plant response rating” value (wheat; [6]) of the same compound?
A: 0

Q: What about the “Plant response rating (0 to 10; 0 is no effect, 10 is complete control), Wheat” value (wheat; Rate 250 g/ha, Postemergence) of the same compound?
A: 6

Q: And the “B. signalgrass plant response rating” value (surinam grass; [1])?
A: 0

Q: What about the “B. signalgrass plant response rating” value (surinam grass; Preemergence, Rate 250 g/ha, scale 0 to 10, 0 is no effect, 10 is complete control) of the same compound?
A: 2

Q: What about the “Plant response rating, B. signalgrass” value (surinam grass; [3]) of the same compound?
A: 2

Q: What about the “B. signalgrass plant response rating” value (surinam grass; [4]) of the same compound?
A: 0

Q: What about the “B. signalgrass plant response rating” value (surinam grass; Rate 125 g/ha, Postemergence, scale 0 (no effect) to 10 (complete control)) of the same compound?
A: 0

Q: And the “B. signalgrass plant response rating” value (surinam grass; [6])?
A: 0

Q: What about the “Plant response rating (0 to 10; 0 is no effect, 10 is complete control), B. signalgrass” value (surinam grass; Rate 250 g/ha, Postemergence) of the same compound?
A: 3

Q: And the “B. signalgrass plant response rating” value (surinam grass; Rate 500 g/ha, Postemergence, scale 0 to 10, 0 no effect, 10 complete control)?
A: 3

Q: And the “Cocklebur plant response rating” value (cocklebur; [1])?
A: 0

Q: What about the “Cocklebur plant response rating” value (cocklebur; [2]) of the same compound?
A: 0

Q: And the “Plant response rating, Cocklebur” value (cocklebur; [3])?
A: 0

Q: And the “Cocklebur plant response rating” value (cocklebur; [4])?
A: 0

Q: And the “Cocklebur plant response rating” value (cocklebur; [5])?
A: 0

Q: What about the “Cocklebur plant response rating” value (cocklebur; [6]) of the same compound?
A: 0

Q: What about the “Plant response rating (0 to 10; 0 is no effect, 10 is complete control), Cocklebur” value (cocklebur; Rate 250 g/ha, Postemergence) of the same compound?
A: 0

Q: And the “Cocklebur plant response rating” value (cocklebur; [7])?
A: 0
